Reference: the supplement of paper PMC10307832

How the values were obtained:
Assay in all cases: relative viability (nuclei count vs DMSO), 5 days (fraction); higher = more cells survive
ABC-1 = test system: ABC-1
Method in brief: (§1)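 Values are medians from duplicate plates. Each reflects relative viability, defined as the nuclei count of treated wells over that of vehicle wells. Lung cancer cell lines in 1536-well plates were pin-tool dosed one day after seeding with one drug alone or with a fixed anchor-drug dose plus five library-drug doses (not always all listed) in √10 steps, then fixed, stained and imaged at 4× after 5 days.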

COR-L23 = test system: COR-L23
Method in brief: as §1

EPLC-272H = test system: EPLC-272H
Method in brief: as §1

HARA = test system: HARA
Method in brief: as §1

HCC-15 = test system: HCC-15
Method in brief: as §1

HCC-78 = test system: HCC-78
Method in brief: as §1

LC-2-ad = test system: LC-2-ad
Method in brief: as §1

LU99A = test system: LU99A
Method in brief: as §1

NCI-H1355 = test system: NCI-H1355
Method in brief: as §1

NCI-H1651 = test system: NCI-H1651
Method in brief: as §1

NCI-H1915 = test system: NCI-H1915
Method in brief: as §1

NCI-H1993 = test system: NCI-H1993
Method in brief: as §1

NCI-H2023 = test system: NCI-H2023
Method in brief: as §1

NCI-H2085 = test system: NCI-H2085
Method in brief: as §1

NCI-H2126 = test system: NCI-H2126
Method in brief: as §1

NCI-H2342 = test system: NCI-H2342
Method in brief: as §1

NCI-H2347 = test system: NCI-H2347
Method in brief: as §1

NCI-H358 = test system: NCI-H358
Method in brief: as §1

NCI-H650 = test system: NCI-H650
Method in brief: as §1

NCI-H838 = test system: NCI-H838
Method in brief: as §1

PC-14 = test system: PC-14
Method in brief: as §1

SW 1573 = test system: SW 1573
Method in brief: as §1

UMC-11 = test system: UMC-11
Method in brief: as §1

In the case of `CC1(C)CCC(c2ccc(Cl)cc2)=C(CN2CCN(c3ccc(C(=O)NS(=O)(=O)c4ccc(N[C@H](CCN5CCOCC5)CSc5ccccc5)c(S(=O)(=O)C(F)(F)F)c4)cc3)CC2)C1` [Navitoclax] + O=C(CCCCCCC(=O)Nc1ccccc1)NO [Vorinostat] (partner 1 µM), the relative viability (ABC-1; first compound 0.005 µM) is reported as 1.22, the relative viability (ABC-1; first compound 0.01581 µM) is reported as 1.34 and the relative viability (ABC-1; first compound 0.05 µM) is reported as 0.725. For the same compound, the relative viability (ABC-1; first compound 0.1581 µM) was 1.41, the relative viability (ABC-1; first compound 0.5 µM) was 1.04 and the relative viability (COR-L23; first compound 0.005 µM) was 0.475. The relative viability (COR-L23; first compound 0.01581 µM) was 0.535, the relative viability (COR-L23; first compound 0.05 µM) was 0.425 and the relative viability (COR-L23; first compound 0.1581 µM) was 0.386. It also gave a relative viability (COR-L23; first compound 0.5 µM) of 0.411, a relative viability (EPLC-272H; first compound 0.005 µM) of 0.521 and a relative viability (EPLC-272H; first compound 0.01581 µM) of 0.561. The relative viability (EPLC-272H; first compound 0.05 µM) was 0.292, the relative viability (EPLC-272H; first compound 0.1581 µM) was 0.385 and the relative viability (EPLC-272H; first compound 0.5 µM) was 0.282. It also gave a relative viability (HARA; first compound 0.005 µM) of 0.536, a relative viability (HARA; first compound 0.01581 µM) of 0.629 and a relative viability (HARA; first compound 0.1581 µM) of 0.521. For the same compound, the relative viability (HARA; first compound 0.5 µM) was 0.55, the relative viability (HCC-15; first compound 0.005 µM) was 0.808 and the relative viability (HCC-15; first compound 0.01581 µM) was 0.831. It also gave a relative viability (HCC-15; first compound 0.05 µM) of 0.684, a relative viability (HCC-15; first compound 0.1581 µM) of 0.794 and a relative viability (HCC-15; first compound 0.5 µM) of 0.809. The relative viability (HCC-78; first compound 0.005 µM) was 0.415, the relative viability (HCC-78; first compound 0.01581 µM) was 0.49 and the relative viability (HCC-78; first compound 0.05 µM) was 0.429. It also gave a relative viability (HCC-78; first compound 0.1581 µM) of 0.431, a relative viability (HCC-78; first compound 0.5 µM) of 0.431 and a relative viability (LC-2-ad; first compound 0.005 µM) of 0.716. The relative viability (LC-2-ad; first compound 0.01581 µM) was 0.686, the relative viability (LC-2-ad; first compound 0.05 µM) was 0.665 and the relative viability (LC-2-ad; first compound 0.1581 µM) was 0.67. For the same compound, the relative viability (LC-2-ad; first compound 0.5 µM) was 0.712, the relative viability (LU99A; first compound 0.005 µM) was 0.487 and the relative viability (LU99A; first compound 0.01581 µM) was 0.451. The relative viability (LU99A; first compound 0.1581 µM) was 0.539, the relative viability (LU99A; first compound 0.5 µM) was 0.469 and the relative viability (NCI-H1355; first compound 0.005 µM) was 0.63. For the same compound, the relative viability (NCI-H1355; first compound 0.01581 µM) was 0.685, the relative viability (NCI-H1355; first compound 0.05 µM) was 0.618 and the relative viability (NCI-H1355; first compound 0.1581 µM) was 0.637. It also gave a relative viability (NCI-H1355; first compound 0.5 µM) of 0.665, a relative viability (NCI-H1651; first compound 0.005 µM) of 0.582 and a relative viability (NCI-H1651; first compound 0.01581 µM) of 0.575. The relative viability (NCI-H1651; first compound 0.05 µM) was 0.466, the relative viability (NCI-H1651; first compound 0.1581 µM) was 0.573 and the relative viability (NCI-H1651; first compound 0.5 µM) was 0.598. For the same compound, the relative viability (NCI-H1915; first compound 0.005 µM) was 0.497, the relative viability (NCI-H1915; first compound 0.01581 µM) was 0.499 and the relative viability (NCI-H1915; first compound 0.05 µM) was 0.556. It also gave a relative viability (NCI-H1915; first compound 0.1581 µM) of 0.481, a relative viability (NCI-H1915; first compound 0.5 µM) of 0.424 and a relative viability (NCI-H1993; first compound 0.005 µM) of 0.74. For the same compound, the relative viability (NCI-H1993; first compound 0.01581 µM) was 0.81, the relative viability (NCI-H1993; first compound 0.05 µM) was 1 and the relative viability (NCI-H1993; first compound 0.1581 µM) was 0.708. It also gave a relative viability (NCI-H1993; first compound 0.5 µM) of 0.703, a relative viability (NCI-H2023; first compound 0.005 µM) of 0.744 and a relative viability (NCI-H2023; first compound 0.01581 µM) of 0.76. The relative viability (NCI-H2023; first compound 0.05 µM) was 0.659, the relative viability (NCI-H2023; first compound 0.1581 µM) was 0.557 and the relative viability (NCI-H2023; first compound 0.5 µM) was 0.473. For the same compound, the relative viability (NCI-H2085; first compound 0.005 µM) was 0.817, the relative viability (NCI-H2085; first compound 0.01581 µM) was 0.998 and the relative viability (NCI-H2085; first compound 0.05 µM) was 0.568. It also gave a relative viability (NCI-H2085; first compound 0.1581 µM) of 0.844, a relative viability (NCI-H2085; first compound 0.5 µM) of 0.834 and a relative viability (NCI-H2126; first compound 0.005 µM) of 0.789. The relative viability (NCI-H2126; first compound 0.01581 µM) was 0.875, the relative viability (NCI-H2126; first compound 0.05 µM) was 0.795 and the relative viability (NCI-H2126; first compound 0.1581 µM) was 0.761. For the same compound, the relative viability (NCI-H2126; first compound 0.5 µM) was 0.681, the relative viability (NCI-H2342; first compound 0.005 µM) was 0.752 and the relative viability (NCI-H2342; first compound 0.01581 µM) was 0.732. The relative viability (NCI-H2342; first compound 0.05 µM) was 0.814, the relative viability (NCI-H2342; first compound 0.1581 µM) was 0.804 and the relative viability (NCI-H2342; first compound 0.5 µM) was 0.779. It also gave a relative viability (NCI-H2347; first compound 0.005 µM) of 0.623, a relative viability (NCI-H2347; first compound 0.01581 µM) of 0.628 and a relative viability (NCI-H2347; first compound 0.05 µM) of 0.534. For the same compound, the relative viability (NCI-H2347; first compound 0.1581 µM) was 0.61, the relative viability (NCI-H2347; first compound 0.5 µM) was 0.542 and the relative viability (NCI-H358; first compound 0.005 µM) was 0.705. The relative viability (NCI-H358; first compound 0.01581 µM) was 0.816, the relative viability (NCI-H358; first compound 0.05 µM) was 0.689 and the relative viability (NCI-H358; first compound 0.1581 µM) was 0.652. The relative viability (NCI-H358; first compound 0.5 µM) was 0.848, the relative viability (NCI-H650; first compound 0.005 µM) was 0.503 and the relative viability (NCI-H650; first compound 0.01581 µM) was 0.448. It also gave a relative viability (NCI-H650; first compound 0.05 µM) of 0.431, a relative viability (NCI-H650; first compound 0.1581 µM) of 0.463 and a relative viability (NCI-H650; first compound 0.5 µM) of 0.453. It also gave a relative viability (NCI-H838; first compound 0.005 µM) of 0.678, a relative viability (NCI-H838; first compound 0.01581 µM) of 0.73 and a relative viability (NCI-H838; first compound 0.05 µM) of 0.76. It also gave a relative viability (NCI-H838; first compound 0.1581 µM) of 0.73, a relative viability (NCI-H838; first compound 0.5 µM) of 0.667 and a relative viability (PC-14; first compound 0.005 µM) of 0.746. For the same compound, the relative viability (PC-14; first compound 0.01581 µM) was 0.794, the relative viability (PC-14; first compound 0.05 µM) was 0.59 and the relative viability (PC-14; first compound 0.1581 µM) was 0.712. It also gave a relative viability (PC-14; first compound 0.5 µM) of 0.687, a relative viability (SW 1573; first compound 0.005 µM) of 0.607 and a relative viability (SW 1573; first compound 0.01581 µM) of 0.9. It also gave a relative viability (SW 1573; first compound 0.05 µM) of 0.683, a relative viability (SW 1573; first compound 0.1581 µM) of 0.475 and a relative viability (SW 1573; first compound 0.5 µM) of 0.597. The relative viability (UMC-11; first compound 0.005 µM) was 0.43, the relative viability (UMC-11; first compound 0.01581 µM) was 0.371 and the relative viability (UMC-11; first compound 0.05 µM) was 0.39. It also gave a relative viability (UMC-11; first compound 0.1581 µM) of 0.312 and a relative viability (UMC-11; first compound 0.5 µM) of 0.148.
